{"source": "patent US10016408B2", "about": "“Chemokine CXCR4 receptor modulators and uses related thereto” (EMORY UNIVERSITY, priority 2010, dated 2018)", "key": {"in vitro [1]": {"test": "in vitro", "details": "human", "procedure": "(§1) MAGI-CXC4 cells (obtained from the NIH AIDS Research and Reference Reagent Program) are passed into T-75 flasks prior to use in the antiviral assay. MAGI-CXCR4 cells are derived from HeLa-CD4-LTR-β-gal cells. The cells have been engineered to express high levels of CD4 and […] and contain one copy of the HIV-1 LTR promoter driving expression of the β-galactosidase gene upon HIV-1 Tat transactivation. On the day preceding the assay, the cells are plated at 1.0×10^4 per well and incubated at 37° C. overnight. Total cell and viability quantification is performed using a hemacytometer and trypan blue exclusion.\n(§2) Compounds are evaluated at one or two concentrations (e.g., for initial screening) or in dose-response at six concentrations (triplicate wells/concentration). On the day of assay setup, compound dilutions are prepared at two-times (2×) the final required concentrations. Media used for plating the cells the day before assay setup is aspirated from the plates and replaced with 50 μL of the 2× compounds, followed by the addition of 50 μL of virus, which dilutes the compounds to the final 1× concentrations. Cell control wells (cells only) and virus control wells (cells plus virus) are included on each assay plate. Identical uninfected assay plates (virus replaced with media) are prepared for parallel cytotoxicity testing. The cultures are incubated for 48 hours or 6 days (depending on compound or client requirements) after which antiviral efficacy is measured as the inhibition of β-galactosidase reporter expression and cytotoxicity is monitored by MTS staining.\n(§3) At assay termination, the cytotoxicity assay plates are stained with the soluble tetrazolium-based dye MTS (CellTiter Reagent, Promega) to determine cell viability and quantify compound toxicity. […] At termination of the assay, 15 μL of MTS reagent is added per well. The microtiter plates are then incubated 1.5-2 hrs at 37° C.; the incubation interval was chosen based on empirically determined times for optimal dye reduction. The plates are read spectrophotometrically at 490/650 nm with a Molecular Devices Vmax plate reader. Percent inhibition of virus replication and percent cell viability at each concentration are calculated using an in-house computer program."}, "HIV-1 IIIB": {"tested_on": "HIV-1 IIIB", "test": "MAGI-CXCR4 HIV-1 IIIB antiviral assay (β-galactosidase reporter)", "details": "for inhibition at 1 µM: MAGI, read-out: MAGI HIV IIIB % Inhibition at 1 uM, 1 uM compound; for T.I. (TC50/IC50): therapeutic index, MAGI assay; for MAGI HIV IIIB % Inhibition at 1 uM: 1 uM compound", "excerpt": "Example 2: MAGI-CXCR4 HIV-1 IIIB Assay Procedure\nas §1\nThe virus used for these tests is the […](CXCR4-tropic strain HIV-1NL4-3 is also available for use). This virus was obtained from the NIH AIDS Research and Reference Reagent Program and was grown in Ghost Hi5/MAGI-CXCR4 co-cultures for the production of stock virus pools. For each assay, a pre-titered aliquot of virus is removed from the freezer (−80° C.) and allowed to thaw slowly to room temperature in a biological safety cabinet. The virus is re-suspended and diluted into tissue culture medium such that the amount of virus added to each well in a volume of […] is approximately ten TCID50/well (˜0.001 TCID50/cell).\nas §2\nA chemiluminescent endpoint is used to determine the extent of β-galactosidase expression as a measure of HIV-1 infection of the cells. Once HIV-1 has attached and entered the MAGI-CXCR4 cells, HIV-1 Tat transactivates the LTR dependent β-galactosidase enzyme to express higher than normal levels of β-galactosidase. Thus there is a direct relationship between the level of HIV-1 infection and the level of β-galactosidase detected in the cells. At 48 hours post infection, plates are aspirated and PBS is added to each well. Gal-screen reagent (Tropix, Bedford, Mass.) is then added per the manufacturer's instructions for chemiluminescent detection of β-galactosidase activity and incubated at room temperature for 90 minutes. The resulting chemiluminescence signal is then read using a Microbeta Trilux luminescence reader (PerkinElmer/Wallac).\nas §3"}, "MAGI-CXCR4 cells": {"tested_on": "MAGI-CXCR4 cells", "test": "MTS cytotoxicity on uninfected MAGI-CXCR4 plates", "procedure": "as §1, §2, §3"}, "HIV IIIB virus": {"tested_on": "HIV IIIB virus", "test": "Peripheral blood mononuclear cell HIV IIIB assay", "details": "for IC50: read-out: PBMC-HIV IC50; for IC90: read-out: PBMC-HIV IC90; for T.I. (TC50/IC50): therapeutic index", "procedure": "(§4) To test efficacy of selected compounds, peripheral mononuclear cell assays are performed. Cells are infected for 6 days with live HIV IIIB virus and PBM cells are run in parallel for cytotoxicity testing, with or without selected agents. Efficacy of compounds as antagonists of the sdf-1 ligand to CXCR4 receptors was determined in I^125 labeled sdf-1 displacement assays from CXCR4-expressing CEM cells are performed."}, "PBM cells": {"tested_on": "PBM cells", "test": "in vitro", "procedure": "as §4"}, "in vitro [2]": {"test": "in vitro", "details": "human", "procedure": "as §4", "remark": "listed apart in the source"}, "[3]": {"details": "Human immunodeficiency virus 1, IIIB, MAGI-CXCR4 cells"}, "[4]": {"details": "Human immunodeficiency virus 1, IIIB, read-out: HIV IC90, MAGI-CXCR4 cells, further testing"}, "[5]": {"details": "read-out: HIV IC50, MAGI-CXCR4 cells, further testing"}, "[6]": {"details": "read-out: HIV IC90, MAGI-CXCR4 cells, further testing"}, "[7]": {"details": "PBMC infected 6 days with live HIV IIIB"}, "[8]": {"details": "Human immunodeficiency virus 1, IIIB, PBMC, 144 h"}}, "note": "Where two headings read alike, the source gives them in different places."}
{"compound": "NCCCCN(CC1CN(Cc2ccccc2)CCN1)C1CCCc2cccnc21", "note": "(stereo not drawn) [Compound 9]", "values": [{"measurement": "CC50", "setting": "in vitro [1]", "value": "> 10", "unit": "µM"}, {"measurement": "inhibition at 1 µM", "setting": "HIV-1 IIIB; [3]", "value": 92, "unit": "%"}, {"measurement": "IC90", "setting": "HIV-1 IIIB; [4]", "value": 0.44, "unit": "µM"}, {"measurement": "IC50", "setting": "HIV-1 IIIB; [5]", "value": 0.03, "unit": "µM"}, {"measurement": "IC50", "setting": "HIV-1 IIIB; read-out: MAGI HIV IIIB IC50, MAGI-CXCR4 cells", "value": 0.03, "unit": "µM"}, {"measurement": "T.I. (TC50/IC50)", "setting": "HIV-1 IIIB", "value": ">333"}]}
{"compound": "CN(CC1CN(Cc2ccccc2)CCN1)C1CCCc2cccnc21", "note": "(stereo not drawn)", "values": [{"measurement": "inhibition at 1 µM", "setting": "HIV-1 IIIB; [3]", "value": 41, "unit": "%"}]}
{"compound": "NCCCCN(C[C@@H]1CC(c2ccccc2)CN1)C1CCCc2cccnc21", "note": "(stereo partly drawn)", "values": [{"measurement": "inhibition at 1 µM", "setting": "HIV-1 IIIB; [3]", "value": 20, "unit": "%"}]}
{"compound": "NCCCCN(CC1CCc2ccccc2N1)C1CCCc2cccnc21", "note": "(stereo not drawn) [drawing 40]", "values": [{"measurement": "inhibition at 1 µM", "setting": "HIV-1 IIIB; [3]", "value": 42, "unit": "%"}]}
{"compound": "Cc1ccc(-c2ccc3c(c2)C=C(C(=O)Nc2ccc(C[N+](C)(C)C4CCOCC4)cc2)CCC3)cc1", "note": "[TAK779, reference compound]", "values": [{"measurement": "CC50", "setting": "MAGI-CXCR4 cells; read-out: TC50, MTS staining, uninfected MAGI-CXCR4 cells", "value": "> 10", "unit": "µM"}, {"measurement": "IC50", "setting": "HIV-1 IIIB; [5]", "value": "> 10", "unit": "µM"}, {"measurement": "IC90", "setting": "HIV-1 IIIB; [6]", "value": "> 10", "unit": "µM"}]}
{"compound": "NCCCCN(C[C@@H]1CC(OCCCN)CN1C(=O)OCc1ccccc1)C1CCCc2cccnc21", "note": "(stereo partly drawn)", "values": [{"measurement": "inhibition at 1 µM", "setting": "HIV-1 IIIB; [3]", "value": 0, "unit": "%"}]}
{"compound": "Cc1cn([C@H]2C[C@H](N=[N+]=[N-])[C@@H](CO)O2)c(=O)[nH]c1=O", "note": "[AZT]", "values": [{"measurement": "IC50", "setting": "HIV IIIB virus; [7]", "value": 0.004, "unit": "µM"}, {"measurement": "IC90", "setting": "HIV IIIB virus; [7]", "value": 0.07, "unit": "µM"}, {"measurement": "T.I. (TC50/IC50)", "setting": "HIV IIIB virus; PBMC", "value": ">240"}, {"measurement": "CC50", "setting": "PBM cells", "value": "> 1", "unit": "µM"}]}
{"compound": "NCCCCN(CC1CCc2ccccc2N1)C1CCCc2cccnc21", "note": "(stereo not drawn) [drawing 41]", "values": [{"measurement": "MAGI HIV IIIB % Inhibition at 1 uM", "setting": "HIV-1 IIIB; MAGI-CXCR4 cells", "value": 31, "unit": "% @ 1 uM"}]}
{"compound": "NCCCCN(C[C@@H]1CC(OCc2ccccc2)CN1)C1CCCc2cccnc21", "note": "(stereo partly drawn)", "values": [{"measurement": "inhibition at 1 µM", "setting": "HIV-1 IIIB; [3]", "value": 0, "unit": "%"}]}
{"compound": "O=C1c2ccccc2C(=O)N1CCCCN(CC1Cc2ccccc2CN1)C1CCCc2cccnc21", "note": "(stereo not drawn)", "values": [{"measurement": "inhibition at 1 µM", "setting": "HIV-1 IIIB; [3]", "value": 25, "unit": "%"}]}
{"compound": "CN(CC1Cc2ccccc2CN1)C1CCCc2cccnc21", "note": "(stereo not drawn)", "values": [{"measurement": "inhibition at 1 µM", "setting": "HIV-1 IIIB; [3]", "value": 30, "unit": "%"}]}
{"compound": "c1cc(CN2CCCNCCNCCCNCC2)ccc1CN1CCCNCCNCCCNCC1", "note": "[AMD3100, reference compound]", "values": [{"measurement": "CC50", "setting": "in vitro [1]", "value": "> 10", "unit": "µM"}, {"measurement": "IC50", "setting": "HIV-1 IIIB; Human immunodeficiency virus 1, IIIB, read-out: HIV IC50, MAGI-CXCR4 cells, further testing", "value": 0.002, "unit": "µM"}, {"measurement": "IC90", "setting": "HIV-1 IIIB; [4]", "value": 0.007, "unit": "µM"}, {"measurement": "T.I. (TC50/IC50)", "setting": "HIV-1 IIIB", "value": ">5000"}, {"measurement": "IC50", "setting": "HIV IIIB virus; [8]", "value": 0.032, "unit": "µM"}, {"measurement": "IC90", "setting": "HIV IIIB virus; [8]", "value": 0.134, "unit": "µM"}, {"measurement": "T.I. (TC50/IC50)", "setting": "HIV IIIB virus; PBMC", "value": ">150"}, {"measurement": "CC50 at 6 days", "setting": "in vitro [2]", "value": "> 5", "unit": "µM"}]}
{"compound": "CN(C[C@@H]1CC(OCCCN)CN1C(=O)OCc1ccccc1)C1CCCc2cccnc21", "note": "(stereo partly drawn)", "values": [{"measurement": "inhibition at 1 µM", "setting": "HIV-1 IIIB; [3]", "value": 0, "unit": "%"}]}
{"compound": "NCCCCN(CC1CN(Cc2ccccc2)CCN1)C1CCCc2cccnc21", "note": "(stereo not drawn) [Compound 8]", "values": [{"measurement": "CC50", "setting": "MAGI-CXCR4 cells; human", "value": "> 10", "unit": "µM"}, {"measurement": "MAGI HIV IIIB % Inhibition at 1 uM", "setting": "HIV-1 IIIB; MAGI-CXCR4 cells", "value": 95, "unit": "%"}, {"measurement": "IC90", "setting": "HIV-1 IIIB; [6]", "value": 0.72, "unit": "µM"}, {"measurement": "T.I. (TC50/IC50)", "setting": "HIV-1 IIIB", "value": ">67"}]}
{"compound": "Maraviroc", "values": [{"measurement": "IC50", "setting": "HIV IIIB virus; [7]", "value": "> 2", "unit": "µM"}, {"measurement": "IC90", "setting": "HIV IIIB virus; [7]", "value": "> 2", "unit": "µM"}]}
